Measured values: patent publication US20110287470A1, “CELL CULTURE METHOD TO FORM AGGREGATES” (priority 2008, published 2011)

Tested on: cardiac tissue generated from cardiomyocytes derived from human ESCs
Assay: Multi-electrode array electrophysiological recordings of CardioSpot cardiac tissue
Assay type: cell-based
Conditions: for repolarising potential (delay measured from the first signal): control 140 ms, FIG. 8
Method: CardioSpot made using primary or stem cell derived cardiomyocytes are placed onto the porous MEAs. Electrophysiological recordings were performed either through the supporting membrane or from under the membrane in order to get a direct contact of the tissues with recording electrodes. Control recording were performed using the culture medium as well a the solution used for reference molecules ([…], and lidocaine) Pharmacological experiments were carried out using reference compounds to characterise and validate the cardiac tissue generated from cardiomyocytes derived from human ESCs and engineered using the method of invention.

SMILES | decrease of the amplitude of the electrophysiological signals (30 uM lidocaine, after 6 minutes, FIG. 7) | amplitude of the first signal (predominantly dependent on sodium channel opening) (lidocaine, within few minutes, FIG. 7) | repolarising potential (delay measured from the first signal) (30 nM E4031, after 5 min) | repolarising potential (delay measured from the first signal) (30 nM E4031, after 15 min)
CCN(CC)CC(=O)Nc1c(C)cccc1C [lidocaine] | 50% | dramatic decrease of the amplitude |  | 
Cc1cccc(CCN2CCC(C(=O)c3ccc(NS(C)(=O)=O)cc3)CC2)n1 [E4031] |  |  | 155 ms | 173 ms
